{
  "source": "patent US9096825B2",
  "about": "“7 α-hydroxysteroid dehydrogenase knockout mutants and use therefor” (Pharmazell GmbH, priority 2010, dated 2015)",
  "molecules": {"B1": {"name": "7β-HSDH obtainable from Collinsella aerofaciens DSM 3979 (Collinsella aerofaciens ATCC 25986) (protein)", "chain": "MNLREKYGEWGLILGATEGVGKAFCEKIAAGGMNVVMVGRREEKLNVLAGEIRETYGVETKVVRADFSQPGAAETVFAATEGLDMGFMSYVACLHSFGKIQDTPWEKHEAMINVNVVTFLKCFHHYMRIFAAQDRGAVINVSSMTGISSSPWNGQYGAGKAFILKMTEAVACECEGTGVDVEVITLGTTLTPSLLSNLPGGPQGEAVMKIALTPEECVDEAFEKLGKELSVIAGQRNKDSVHDWKANHTEDEYIRYMGSFYRD"}},
  "key": {"[1]": {"molecular_target": "T1, 7β-HSDH obtainable from Collinsella aerofaciens DSM 3979 (Collinsella aerofaciens, UniProt A4ECA9)", "T1 sequence (A4ECA9 1-263)": "B1 chain", "experiment": "Kinetic parameters of 7β-HSDH for substrates/cofactors"}, "E. coli BL21(DE3)": {"tested_on": "E. coli BL21(DE3)", "experiment": "Incubation of cholic acid with E. coli culture, HPLC detection of the oxidation product", "assay_type": "cell-based", "details": "20 mM cholic acid added to 5 ml of culture"}, "[2]": {"tested_on": "E. coli BL21(DE3) Δ7α-HSDH", "experiment": "Incubation of cholic acid with knockout strain culture, HPLC detection of the oxidation product", "assay_type": "cell-based", "details": "20 mM cholic acid added to 5 ml of culture"}, "[3]": {"substrate": "C[C@H](CCC(=O)O)[C@H]1CC[C@H]2[C@@H]3C(=O)C[C@@H]4CC(=O)CC[C@]4(C)[C@H]3CC(=O)[C@]12C", "experiment": "purified protein, by the assay type", "details": "other: substrate/cofactor of 7β-HSDH"}, "[4]": {"substrate": "C[C@H](CCC(=O)O)[C@H]1CC[C@H]2[C@@H]3[C@@H](O)C[C@@H]4C[C@H](O)CC[C@]4(C)[C@H]3CC[C@]12C", "experiment": "purified protein, by the assay type", "details": "other: substrate/cofactor of 7β-HSDH"}},
  "data": [
    {"molecule": "C[C@H](CCC(=O)O)[C@H]1CC[C@H]2[C@@H]3C(=O)C[C@@H]4C[C@H](O)CC[C@]4(C)[C@H]3CC[C@]12C", "note": "[7-keto-LCA, 7-Ketolithocholic acid]", "values": [
      {"measurement": "kcat", "setting": "[1]", "value": "950.77 1 μmol/(μmol × min)"},
      {"measurement": "Vmax", "setting": "[1]; 1 U = 1 μmol/min", "value": 30.77, "unit": "U/mg protein"}
    ]},
    {"molecule": "C[C@H](CCC(=O)O)[C@H]1CC[C@H]2[C@@H]3[C@H](O)C[C@@H]4C[C@H](O)CC[C@]4(C)[C@H]3C[C@H](O)[C@]12C", "note": "[cholic acid, Cholic acid]", "values": [
      {"measurement": "7α-HSDH activity against cholic acid (oxidation to 7-keto-3,12-dihydroxycholanic acid)", "setting": "E. coli BL21(DE3)", "value": "clearly showed 7α-HSDH activity"},
      {"measurement": "oxidation product 7-keto-3,12-dihydroxycholanic acid detected by HPLC", "setting": "[2]", "value": "No oxidation product"}
    ]},
    {"molecule": "B1", "values": [
      {"measurement": "Km", "setting": "[3]", "value": 9.23, "unit": "µM"},
      {"measurement": "Vmax", "setting": "[3]", "value": 28.3, "unit": "µmol/min/mg"},
      {"measurement": "Km", "setting": "[4]", "value": 6.23, "unit": "µM"},
      {"measurement": "Vmax", "setting": "[4]", "value": 38.2, "unit": "µmol/min/mg"}
    ]}
  ]
}
